Patent US20250361230A1, “LATS Inhibitors and Uses Thereof” (The USA, as Represented by the Secretary, Dept. of Heath …, priority 2022, published 2025)
Like-named read-outs stand apart in the source and are kept apart here.

Assays:
[1] = target: T1, LATS1 Kinase-NanoLuc fusion in HEK-293 cells (Homo sapiens, UniProt O95835); assay: NanoBRET target engagement assay in transfected HEK-293 cells, LATS1; format: cell-based
T1 construct: host or cells: HEK-293
T1 sequence (O95835 1-1130): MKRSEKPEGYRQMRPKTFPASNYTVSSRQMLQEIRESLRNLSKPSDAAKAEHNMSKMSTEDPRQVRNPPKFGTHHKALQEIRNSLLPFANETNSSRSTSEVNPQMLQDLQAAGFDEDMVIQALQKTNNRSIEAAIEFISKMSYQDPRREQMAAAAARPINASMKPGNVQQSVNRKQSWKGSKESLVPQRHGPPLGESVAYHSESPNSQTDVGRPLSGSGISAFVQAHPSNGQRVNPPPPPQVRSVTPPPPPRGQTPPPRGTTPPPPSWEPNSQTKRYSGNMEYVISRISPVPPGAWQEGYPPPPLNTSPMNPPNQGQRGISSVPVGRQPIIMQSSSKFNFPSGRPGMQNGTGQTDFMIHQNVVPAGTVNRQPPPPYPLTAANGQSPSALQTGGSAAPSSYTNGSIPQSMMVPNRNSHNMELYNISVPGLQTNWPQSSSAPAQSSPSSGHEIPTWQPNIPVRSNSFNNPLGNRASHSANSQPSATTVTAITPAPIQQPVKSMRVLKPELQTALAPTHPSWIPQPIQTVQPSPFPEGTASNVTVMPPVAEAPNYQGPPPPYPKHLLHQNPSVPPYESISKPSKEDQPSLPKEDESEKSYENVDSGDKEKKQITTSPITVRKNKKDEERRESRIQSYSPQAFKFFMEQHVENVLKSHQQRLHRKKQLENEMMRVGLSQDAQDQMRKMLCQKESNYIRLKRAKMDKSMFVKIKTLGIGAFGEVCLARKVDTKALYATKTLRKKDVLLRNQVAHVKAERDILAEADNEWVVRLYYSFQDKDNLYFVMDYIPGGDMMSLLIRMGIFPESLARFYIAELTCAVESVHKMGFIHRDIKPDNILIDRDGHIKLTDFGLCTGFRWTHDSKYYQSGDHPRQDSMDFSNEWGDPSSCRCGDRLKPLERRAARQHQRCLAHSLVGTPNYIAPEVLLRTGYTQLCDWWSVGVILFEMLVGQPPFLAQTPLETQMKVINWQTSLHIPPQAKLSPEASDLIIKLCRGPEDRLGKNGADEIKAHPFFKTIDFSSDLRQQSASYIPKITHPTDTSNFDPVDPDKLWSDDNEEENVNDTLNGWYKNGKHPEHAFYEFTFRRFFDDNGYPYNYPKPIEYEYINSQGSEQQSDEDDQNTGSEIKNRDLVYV
Summary of the method: (§1)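 HEK-293 cells transiently transfected with kinase-NanoLuc fusion plasmid for 22-24 h, then incubated with compound and NanoBRET tracer for 1 hour at 37° C. After substrate plus extracellular NanoLuc inhibitor addition, 460 and 600 nm emissions read; no-tracer-corrected BRET ratio used to derive IC50 values.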

[2] = target: T2, AKT Kinase-NanoLuc fusion in HEK-293 cells (Homo sapiens, UniProt P31749); assay: NanoBRET target engagement assay in transfected HEK-293 cells, AKT; format: cell-based
T2 construct: host or cells: HEK-293
Summary of the method: as §1

[3] = Table 28, NanoBRET, HEK-293 cells, read-out: LATS1 (Cellular) IC50
[4] = Table 28, NanoBRET, HEK-293 cells, read-out: AKT1 (Cellular) IC50
[5] = Table 32, NanoBRET, HEK-293 cells, read-out: LATS1 (Cellular) IC50
[6] = Table 32, NanoBRET, HEK-293 cells, read-out: AKT (Cellular) IC50
[7] = cellular, read-out: AKT (Cellular) IC50

T2 sequence (P31749 whole entry, the tested form may be a part): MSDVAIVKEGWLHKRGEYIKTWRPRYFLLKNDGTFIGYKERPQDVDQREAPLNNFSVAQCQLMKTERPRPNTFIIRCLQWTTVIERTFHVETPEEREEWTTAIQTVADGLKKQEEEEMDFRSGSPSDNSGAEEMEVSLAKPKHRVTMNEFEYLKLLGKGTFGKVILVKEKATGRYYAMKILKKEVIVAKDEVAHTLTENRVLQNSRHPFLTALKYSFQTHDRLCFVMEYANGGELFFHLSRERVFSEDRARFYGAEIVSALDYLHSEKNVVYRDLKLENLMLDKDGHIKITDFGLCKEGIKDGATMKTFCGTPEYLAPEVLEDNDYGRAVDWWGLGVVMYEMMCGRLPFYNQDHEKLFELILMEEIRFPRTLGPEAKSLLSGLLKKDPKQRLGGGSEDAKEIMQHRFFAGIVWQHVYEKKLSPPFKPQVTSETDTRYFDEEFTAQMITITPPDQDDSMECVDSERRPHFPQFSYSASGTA

IC50 [1, 3] | IC50 [2, 4] | IC50 [1, 5] | IC50 [2, 6] | Compound | also measured
22800 nM | > 50000 nM | – | – | NCc1ccc(-c2ccnc3[nH]ccc23)cc1 [Compound 287, (4-(1H-pyrrolo[2,3-b]pyridin-4-yl)phenyl) methanamine] | –
1350 nM | 39900 nM | – | – | COC(=O)c1c[nH]c2nccc(-c3cc(C)c([C@@]4(O)[C@H](C)CN(C5CCS(=O)(=O)CC5)C[C@@H]4C)c(F)c3)c12 [Compound 309, methyl 4-(4-((3S,4s,5R)-1-(1,1-dioxidotetrahydro-2H-thiopyran-4-yl)-4-hydroxy-3,5-dimethylpiperidin-4-yl)-3-fluoro-5-methylphenyl)-1H-pyrrolo[2,3-b]pyridine-3-carboxylate] | –
4590 nM | 49400 nM | – | – | COC(=O)c1c[nH]c2nccc(-c3cc(C)c([C@@]4(O)[C@H](C)CN(C(=O)CN)C[C@@H]4C)c(F)c3)c12 [Compound 310, methyl 4-(3-fluoro-4-((3S,4s,5R)-1-glycyl-4-hydroxy-3,5-dimethylpiperidin-4-yl)-5-methylphenyl)-1H-pyrrolo[2,3-b]pyridine-3-carboxylate] | –
10.4 nM | 12800 nM | – | – | Cc1cc(-c2ccnc3[nH]cc(F)c23)cc(F)c1[C@@]1(O)[C@H](C)CN(C(=O)[C@H](N)CO)C[C@@H]1C [Compound 312, (R)-2-amino-1-((3S,4R,5R)-4-(2-fluoro-4-(3-fluoro-1H-pyrrolo[2,3-b]pyridin-4-yl)-6-methylphenyl)-4-hydroxy-3,5-dimethylpiperidin-1-yl)-3-hydroxypropan-1-one] | –
43 nM | 19200 nM | – | – | Cc1cc(-c2ccnc3[nH]cc(F)c23)cc(F)c1[C@@]1(O)[C@H](C)CN(C(=O)[C@@H](CO)N(C)C)C[C@@H]1C [Compound 313, (R)-2-(dimethylamino)-1-((3S,4S,5R)-4-(2-fluoro-4-(3-fluoro-1H-pyrrolo[2,3-b]pyridin-4-yl)-6-methylphenyl)-4-hydroxy-3,5-dimethylpiperidin-1-yl)-3-hydroxypropan-1-one] | –
– | – | 123 nM | 42 nM | NCC(O)(c1ccc(Cl)cc1)c1ccc(-c2ccnc3[nH]ccc23)cc1 (centres unmarked) [Compound 1001, 1-(4-(1H-pyrrolo[2,3-b]pyridin-4-yl)phenyl)-2-amino-1-(4-chlorophenyl)ethan-1-ol] | –
– | – | 55 nM | 27 nM | NCC(O)(c1ccc(Cl)cc1)c1ccc(-c2ccnc3[nH]cc(F)c23)cc1 (centres unmarked) [Compound 1002, 2-amino-1-(4-chlorophenyl)-1-(4-(3-fluoro-1H-pyrrolo[2,3-b]pyridin-4-yl)phenyl)ethan-1-ol] | –
– | – | 2000 nM | 548 nM | COC(=O)c1c[nH]c2nccc(-c3ccc(C(O)(CN)c4ccc(Cl)cc4)cc3)c12 (centres unmarked) [Compound 1004, Methyl 4-(4-(2-amino-1-(4-chlorophenyl)-1-hydroxyethyl)phenyl)-1H-pyrrolo[2,3-b]pyridine-3-carboxylate] | –
– | – | 8 nM | 2.9 nM | NCC(O)(c1ccc(Cl)cc1)c1ccc(-c2ccnc3[nH]cc(Br)c23)cc1 (centres unmarked) [Compound 1005, 2-amino-1-(4-(3-bromo-1H-pyrrolo[2,3-b]pyridin-4-yl)phenyl)-1-(4-chlorophenyl)ethan-1-ol] | –
– | – | 283 nM | 135 nM | NCC(O)(c1ccc(Cl)cc1)c1ccc(-c2ccnc3[nH]cc(-c4ccccc4)c23)cc1 (centres unmarked) [Compound 1006, 2-amino-1-(4-chlorophenyl)-1-(4-(3-phenyl-1H-pyrrolo[2,3-b]pyridin-4-yl)phenyl)ethan-1-ol] | –
– | – | 309 nM | 153 nM | NCC(O)(c1ccc(Cl)cc1)c1ccc(-c2ccnc3[nH]cc(-c4cccnc4)c23)cc1 (centres unmarked) [Compound 1007, 2-amino-1-(4-chlorophenyl)-1-(4-(3-(pyridin-3-yl)-1H-pyrrolo[2,3-b]pyridin-4-yl)phenyl)ethan-1-ol] | –
– | – | 24 nM | 76.3 nM | NCC(O)(c1ccc(Cl)cc1)c1ccc(-c2ccnc3[nH]cc(Br)c23)nc1 (centres unmarked) [Compound 1011, 2-amino-1-(6-(3-bromo-1H-pyrrolo[2,3-b]pyridin-4-yl)pyridin-3-yl)-1-(4-chlorophenyl)ethan-1-ol] | –
– | – | 159 nM | 12 nM | NCC(=O)NCC(O)(c1ccc(Cl)cc1)c1ccc(-c2ccnc3[nH]cc(Cl)c23)cc1 (centres unmarked) [Compound 1021, 2-amino-N-(2-(4-(3-chloro-1H-pyrrolo[2,3-b]pyridin-4-yl)phenyl)-2-(4-chlorophenyl)-2-hydroxyethyl) acetamide] | –
– | – | – | – | Cc1cc(-c2ccnc3[nH]cc(C#N)c23)cc(F)c1[C@@]1(O)[C@H](C)CN(C2CCS(=O)(=O)CC2)C[C@@H]1C [Compound 2002, 4-(4-((3S,4s,5R)-1-(1,1-dioxidotetrahydro-2H-thiopyran-4-yl)-4-hydroxy-3,5-dimethylpiperidin-4-yl)-3-fluoro-5-methylphenyl)-1H-pyrrolo[2,3-b]pyridine-3-carbonitrile] | IC50 ([1]; cellular): 30.4 nM; IC50 [2, 7]: 57900 nM
– | – | – | – | Cc1cc(-c2ccnc3[nH]cc(C#N)c23)cc(F)c1[C@@]1(O)[C@H](C)CN(C(=O)CN)C[C@@H]1C [Compound 2004, 4-(3-fluoro-4-((3S,4s,5R)-1-glycyl-4-hydroxy-3,5-dimethylpiperidin-4-yl)-5-methylphenyl)-1H-pyrrolo[2,3-b]pyridine-3-carbonitrile] | IC50 ([1]; cellular): 2.5 nM; IC50 [2, 7]: 51700 nM
– | – | – | – | Cc1cc(-c2ccnc3[nH]cc(C#N)c23)ccc1[C@@]1(O)[C@H](C)CN(C(=O)CN)C[C@@H]1C [Compound 2005, 4-(4-((3S,4s,5R)-1-glycyl-4-hydroxy-3,5-dimethylpiperidin-4-yl)-3-methylphenyl)-1H-pyrrolo[2,3-b]pyridine-3-carbonitrile] | IC50 ([1]; cellular): 46.6 nM; IC50 [2, 7]: 56800 nM
– | – | – | – | Cc1cc(-c2ccnc3[nH]cc(C#N)c23)cc(F)c1[C@@]1(O)[C@H](C)CN(C(=O)[C@H](N)CO)C[C@@H]1C [Compound 2007, 4-(4-((3S,4S,5R)-1-(D-seryl)-4-hydroxy-3,5-dimethylpiperidin-4-yl)-3-fluoro-5-methylphenyl)-1H-pyrrolo[2,3-b]pyridine-3-carbonitrile] | IC50 ([1]; cellular): < 2.5 nM; IC50 [2, 7]: > 50000 nM
– | – | – | – | Cc1cc(-c2ccnc3[nH]cc(C#N)c23)cc(F)c1[C@@]1(O)[C@H](C)CN(C(=O)[C@](C)(N)CO)C[C@@H]1C [Compound 2008, 4-(4-((3S,4s,5R)-1-(2-amino-3-hydroxy-2-methylpropanoyl)-4-hydroxy-3,5-dimethylpiperidin-4-yl)-3-fluoro-5-methylphenyl)-1H-pyrrolo[2,3-b]pyridine-3-carbonitrile] | IC50 ([1]; cellular): < 2.5 nM; IC50 [2, 7]: > 50000 nM
– | – | – | – | Cc1cc(-c2ccnc3[nH]cc(C#N)c23)cc(F)c1[C@@]1(O)[C@H](C)CN(C(=O)[C@H](C)N)C[C@@H]1C [Compound 2011, 4-(4-((3S,4R,5R)-1-(L-alanyl)-4-hydroxy-3,5-dimethylpiperidin-4-yl)-3-fluoro-5-methylphenyl)-1H-pyrrolo[2,3-b]pyridine-3-carbonitrile] | IC50 ([1]; cellular): < 2.5 nM; IC50 [2, 7]: > 50000 nM

Compound | IC50 [1, 3] | IC50 [2, 4] | IC50 [1, 5] | IC50 [2, 6] | also measured
Cc1cc(-c2ccnc3[nH]cc(F)c23)cc(F)c1[C@@]1(O)[C@H](C)CN(C)C[C@@H]1C [Compound 304, (3S,4s,5R)-4-(2-fluoro-4-(3-fluoro-1H-pyrrolo[2,3-b]pyridin-4-yl)-6-methylphenyl)-1,3,5-trimethylpiperidin-4-ol] | 41.7 nM | 26000 nM | – | – | –
Cc1cc(-c2ccnc3[nH]cc(F)c23)cc(F)c1[C@@]1(O)[C@H](C)CN(C(C)C)C[C@@H]1C [Compound 305, (3S,4s,5R)-4-(2-fluoro-4-(3-fluoro-1H-pyrrolo[2,3-b]pyridin-4-yl)-6-methylphenyl)-1-isopropyl-3,5-dimethylpiperidin-4-ol] | 62.2 nM | 29400 nM | – | – | –
OC1(c2ccc(-c3ccnc4[nH]cc(F)c34)cc2)CC2(CNC2)C1 [Compound 319, 6-(4-(3-fluoro-1H-pyrrolo[2,3-b]pyridin-4-yl)phenyl)-2-azaspiro[3.3]heptan-6-ol] | 27700 nM | 44800 nM | – | – | –
